A short description of this data set: In vitro skin permeation with human skin, Franz-type diffusion cells. The note with it: solvent/skin penetration enhancer DEET and/or Crotamiton, concentration below saturation, receptor at 32° C. Type of data set: in vitro ADME. The procedure:
Dermatomed human skin sections were mounted onto the Franz cells and transdermal drug delivery systems mounted on tape backings (1.5 cm^2) were placed on the stratum corneal surface of the skin. Each Franz cell contained 7 ml of ethanol phosphate buffered saline as the receptor medium, maintained at 32° C. At predetermined time intervals 0.7 ml of the receptor solution was sampled and an equal amount replaced. The samples were analysed by High Pressure Liquid Chromatography.

With `C[C@]12CC[C@@H]3c4ccc(O)cc4CC[C@H]3[C@@H]1CC[C@@H]2O` [Estradiol], the skin mass transport result is on record as “enhanced”.
On to `C#C[C@]1(OC(C)=O)CC[C@H]2[C@@H]3CCC4=CC(=O)CC[C@@H]4[C@H]3CC[C@@]21C` [Norethisterone Acetate], for which the skin mass transport result is recorded as “enhanced”.

Values taken from patent US20050287195A1, “Transdermal drug delivery systems” (priority 1998, published 2005).
